Structures can show the parent of a compound that is named as a salt.
Columns and labels:
[1] = system: BRCA-1 silenced HeLa cells (HeLa shBRCA1-GFP); assay: Proliferation assay in BRCA-1 silenced HeLa cells; type: cell-based; conditions: Homo sapiens; BRCA1 silenced HeLa cells, 168 hours; read-out: CC50 in the BRCA1 silenced HeLa cells
Procedure, shortened: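 HeLa cells with lentiviral shRNA BRCA1 knockdown (>80%), compared with control-vector HeLa, seeded at 300 cells/well. Compound exposure lasted 168 h at 37° C. Viability was read as resazurin-to-resorufin fluorescence (ex 550/em 590 nm).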

[2] = molecular target: T1, PARP-1 (Homo sapiens, UniProt P09874); assay: PARP-1 SPA assay; type: biochemical
T1 construct: purchased Trevigen 4668-500-01
T1 sequence (P09874 whole entry): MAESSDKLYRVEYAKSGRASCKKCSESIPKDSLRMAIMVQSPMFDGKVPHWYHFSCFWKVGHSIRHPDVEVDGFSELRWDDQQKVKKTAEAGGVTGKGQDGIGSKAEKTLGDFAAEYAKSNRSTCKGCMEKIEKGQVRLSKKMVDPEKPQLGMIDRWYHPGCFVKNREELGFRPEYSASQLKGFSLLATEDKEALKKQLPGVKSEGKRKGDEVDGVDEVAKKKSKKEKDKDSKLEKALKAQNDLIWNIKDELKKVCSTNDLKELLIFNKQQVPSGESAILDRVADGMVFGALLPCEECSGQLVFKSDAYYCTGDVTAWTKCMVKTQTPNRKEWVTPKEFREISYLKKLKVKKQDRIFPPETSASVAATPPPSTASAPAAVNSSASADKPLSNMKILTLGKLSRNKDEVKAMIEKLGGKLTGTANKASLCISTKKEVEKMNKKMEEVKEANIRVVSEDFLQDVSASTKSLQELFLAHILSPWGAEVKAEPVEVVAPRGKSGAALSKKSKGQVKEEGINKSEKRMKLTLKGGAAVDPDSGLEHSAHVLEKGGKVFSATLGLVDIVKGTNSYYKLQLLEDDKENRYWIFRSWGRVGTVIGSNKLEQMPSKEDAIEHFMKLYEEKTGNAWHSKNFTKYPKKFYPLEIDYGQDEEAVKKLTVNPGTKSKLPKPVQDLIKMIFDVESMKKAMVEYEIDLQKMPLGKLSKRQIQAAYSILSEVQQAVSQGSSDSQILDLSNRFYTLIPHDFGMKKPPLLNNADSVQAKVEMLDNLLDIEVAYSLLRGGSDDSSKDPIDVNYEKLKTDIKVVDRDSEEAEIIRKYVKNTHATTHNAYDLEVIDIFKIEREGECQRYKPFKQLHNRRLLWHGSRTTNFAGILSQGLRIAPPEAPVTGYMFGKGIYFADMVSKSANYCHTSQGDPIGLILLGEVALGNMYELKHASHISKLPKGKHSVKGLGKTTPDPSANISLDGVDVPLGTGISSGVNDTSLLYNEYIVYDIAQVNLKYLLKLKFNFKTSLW
Method: Assay buffer: 100 mM Tris pH 8, 4 mM MgCl2, 4 mM Spermine, 200 mM KCl, 0.04% Nonidet P-40.
Nicotinamide-adenine dinucleotide (NAD)/DNA Mix: [^3H-NAD] (250 uCi/ml, 0.4 ul, Perkin-Elmer NET-443H), NAD (1.5 mM, 0.05 ul, SIGMA N-1511), Biotinylated-NAD (250 uM, 0.03 ul, Trevigen 4670-500-01), Activated calf thymus (1 mg/ml, 0.05 ul, Amersham Biosciences 27-4575), H2O (to 10 ul).
Developing Mix: Streptavidin SPA beads (5 mg/ml, Amersham Biosciences RPNQ 0007) dissolved in 500 mM EDTA.
The reaction is performed in 96-well microplate with a final volume of 50 uL/well. Add 5 ul 5% DMSO/compound solution, add enzyme mix (35 ul), start the reaction by adding NAD/DNA mix (10 uL) and incubate for 2 hrs at RT. Stop the reaction by adding developing mix (25 ul) and incubate 15 min at RT. Measure using a Packard TOP COUNT instrument.

SMILES	CC50 [1]	IC50 [2]
Cc1c(Cc2ccc(F)c(C(=O)N3CCN(C4CCC(F)(F)C4)C(=O)C3)c2)n[nH]c(=O)c1C (stereo not drawn) [Example 49, 6-(3-{[4-(3,3-Difluorocyclopentyl)-3-oxopiperazin-1-yl]carbonyl}-4-fluorobenzyl)-4,5-dimethyl-3-oxo-2,3-dihydropyridazin-1-ium trifluoroacetate]	< 50 nM	< 5 nM
CCOCCN1CCN(C(=O)c2cc(Cc3n[nH]c(=O)c(C)c3C)ccc2F)CC1=O [Example 171, 6-(3-{[4-(2-Ethoxyethyl)-3-oxopiperazin-1-yl]carbonyl}-4-fluorobenzyl)-4,5-dimethylpyridazin-3(2H)-one]	< 5000 nM	< 5 nM
Cc1c(Cc2ccc(F)c(C(=O)N3CCN(C4CCOCC4)C(=O)C3)c2)n[nH]c(=O)c1C [Example 120, 6-(4-fluoro-3-{[3-oxo-4-(tetrahydro-2H-pyran-4-yl)piperazin-1-yl]carbonyl}benzyl)-4,5-dimethyl-3-oxo-2,3-dihydropyridazin-1-ium trifluoroacetate]	< 5000 nM	5 to 25 nM
Cc1c(Cc2ccc(F)c(C(=O)N3CCN(C4CCC4)C(=O)C3)c2)n[nH]c(=O)c1C [Example 57, 6-{3-[(4-Cyclobutyl-3-oxopiperazin-1-yl)carbonyl]-4-fluorobenzyl}-4,5-dimethyl-3-oxo-2,3-dihydropyridazin-1-ium trifluoroacetate]	50 to 500 nM	5 to 25 nM
Cc1c(Cc2ccc(F)c(C(=O)N3CCN(c4cc(C(F)(F)F)ccn4)C(=O)C3)c2)n[nH]c(=O)c1C [Example 61, 3-[4-Fluoro-3-({3-oxo-4-[4-(trifluoromethyl)pyridin-2-yl]piperazin-1-yl}carbonyl)benzyl]-4,5-dimethyl-6-oxo-1,6-dihydropyridazin-1-ium trifluoroacetate]	50 to 500 nM	5 to 25 nM
O=C(c1cc(Cc2cc(C(F)(F)F)c(=O)[nH]n2)ccc1F)N1CC(=O)N2CCCCC2C1 (racemic) [Example 91, 2-(2-Fluoro-5-{[6-oxo-5-(trifluoromethyl)-1,6-dihydropyridazin-3-yl]methyl}benzoyl)octahydro-4H-pyrido[1,2-a]pyrazin-4-one]	50 to 500 nM	5 to 25 nM
Cc1c(Cc2ccc(F)c(C(=O)N3CC(=O)N(C4C[C@H]5CC[C@@H]4C5)C(C)C3)c2)n[nH]c(=O)c1C (stereo partly drawn) [Example 140, 6-[3-({4-[(1R,4S)-bicyclo[2.2.1]hept-2-yl]-3-methyl-5-oxopiperazin-1-yl}carbonyl)-4-fluorobenzyl]-4,5-dimethyl-3-oxo-2,3-dihydropyridazin-1-ium trifluoroacetate]	< 50 nM	5 to 25 nM
O=C(c1cc(Cc2cc(C(F)(F)F)c(=O)[nH]n2)ccc1F)N1CCN(C2CCCC2)C(=O)C1 [Example 33, 6-{3-[(4-Cyclopentyl-3-oxopiperazin-1-yl)carbonyl]-4-fluorobenzyl}-3-oxo-4-(trifluoromethyl)-2,3-dihydropyridazin-1-ium trifluoroacetate]	50 to 500 nM	< 5 nM
Cc1c(Cc2ccc(F)c(C(=O)N3CCN([C@H]4CC[C@@H](F)C4)C(=O)C3)c2)n[nH]c(=O)c1C (relative stereo) [Example 80, cis-3-{4-Fluoro-3-[4-(3-fluoro-cyclopentyl)-3-oxo-piperazine-1-carbonyl]-benzyl}-4,5-dimethyl-6-oxo-1,6-dihydro-pyridazin-1-ium trifluoroacetate]	50 to 500 nM	< 5 nM
Cc1c(Cc2ccc(F)c(C(=O)N3CCC(=O)N(C(C)C)CC3)c2)n[nH]c(=O)c1C [Example 36, 6-{4-Fluoro-3-[(4-isopropyl-5-oxo-1,4-diazepan-1-yl)carbonyl]benzyl}-4,5-dimethyl-3-oxo-2,3-dihydropyridazin-1-ium trifluoroacetate]	< 5000 nM	5 to 25 nM
Cc1c(Cc2ccc(F)c(C(=O)N3CCN(CC4(c5ccccc5)CCOCC4)C(=O)C3)c2)n[nH]c(=O)c1C [Example 56, 6-[4-Fluoro-3-({3-oxo-4-[(4-phenyltetrahydro-2H-pyran-4-yl)methyl]piperazin-1-yl}carbonyl)benzyl]-4,5-dimethyl-3-oxo-2,3-dihydropyridazin-1-ium trifluoroacetate]	< 5000 nM	5 to 25 nM
C[C@@H]1CCC[C@H]2CN(C(=O)c3cc(Cc4cc(C(F)(F)F)c(=O)[nH]n4)ccc3F)CC(=O)N21 (racemic) [Example 87, 6-{4-Fluoro-3-[(cis-6-methyl-4-oxooctahydro-2H-pyrido[1,2-a]pyrazin-2-yl)carbonyl]benzyl}-3-oxo-4-(trifluoromethyl)-2,3-dihydropyridazin-1-ium trifluoroacetate]	< 50 nM	5 to 25 nM
Cc1c(Cc2ccc(F)c(C(=O)N3CC(=O)N(C4CCC4)[C@@H](C)C3)c2)n[nH]c(=O)c1C [Example 176, 6-(3-{[(3S)-4-Cyclobutyl-3-methyl-5-oxopiperazin-1-yl]carbonyl}-4-fluorobenzyl)-4,5-dimethylpyridazin-3(2H)-one]	< 5000 nM	5 to 25 nM
Cc1c(Cc2ccc(F)c(C(=O)N3CCN(C4CCCC(C)(C)C4)C(=O)C3)c2)n[nH]c(=O)c1C (stereo not drawn) [Example 51, 6-(3-{[4-(3,3-Dimethylcyclohexyl)-3-oxopiperazin-1-yl]carbonyl}-4-fluorobenzyl)-4,5-dimethyl-3-oxo-2,3-dihydropyridazin-1-ium trifluoroacetate]	50 to 500 nM	5 to 25 nM
Cc1c(Cc2ccc(F)c(C(=O)N3CC(=O)N(C4CCCC4)[C@H](C(C)C)C3)c2)n[nH]c(=O)c1C [Example 207, 6-(3-{[(3R)-4-Cyclopentyl-3-isopropyl-5-oxopiperazin-1-yl]carbonyl}-4-fluorobenzyl)-4,5-dimethylpyridazin-3(2H)-one]	< 5000 nM	5 to 25 nM
Cc1c(Cc2ccc(F)c(C(=O)N3CCN(CC4CCCc5ccccc54)C(=O)C3)c2)n[nH]c(=O)c1C (stereo not drawn) [Example 53, 6-(4-Fluoro-3-{[3-oxo-4-(1,2,3,4-tetrahydronaphthalen-1-ylmethyl)piperazin-1-yl]carbonyl}benzyl)-4,5-dimethyl-3-oxo-2,3-dihydropyridazin-1-ium trifluoroacetate]	50 to 500 nM	5 to 25 nM
Cc1c(Cc2ccc(F)c(C(=O)N3CCN(C4CCCOC4)C(=O)C3)c2)n[nH]c(=O)c1C(F)(F)F (stereo not drawn) [Example 141, 3-(4-Fluoro-3-{[3-oxo-4-(tetrahydro-2H-pyran-3-yl)piperazin-1-yl]carbonyl}benzyl)-4-methyl-6-oxo-5-(trifluoromethyl)-1,6-dihydropyridazin-1-ium trifluoroacetate]	< 50 nM	5 to 25 nM
Cc1c(Cc2ccc(F)c(C(=O)N3CC(=O)N(c4ccccc4)[C@@H](C)C3)c2)n[nH]c(=O)c1C (single isomer, unassigned) [78 (LL4A)]	50 to 500 nM	5 to 25 nM
CCN1C(=O)CN(C(=O)c2cc(Cc3n[nH]c(=O)c(C)c3C)ccc2F)CC1C (stereo not drawn) [Example 137, 6-{3-[(4-ethyl-3-methyl-5-oxopiperazin-1-yl)carbonyl]-4-fluorobenzyl}-4,5-dimethyl-3-oxo-2,3-dihydropyridazin-1-ium trifluoroacetate]	50 to 500 nM	5 to 25 nM
CCc1cc(Cc2ccc(F)c(C(=O)N3CCN(C4CCCOC4)C(=O)C3)c2)n[nH]c1=O (stereo not drawn) [Example 133, 4-ethyl-6-(4-fluoro-3-{[3-oxo-4-(tetrahydro-2H-pyran-3-yl)piperazin-1-yl]carbonyl}benzyl)-3-oxo-2,3-dihydropyridazin-1-ium trifluoroacetate]	50 to 500 nM	5 to 25 nM
Cc1c(Cc2ccc(F)c(C(=O)N3CCN(c4ccc(C#N)cc4)C(=O)C3)c2)n[nH]c(=O)c1C [Example 94, 3-(3-{[4-(4-Cyanophenyl)-3-oxopiperazin-1-yl]carbonyl}-4-fluorobenzyl)-4,5-dimethyl-6-oxo-1,6-dihydropyridazin-1-ium trifluoroacetate]	50 to 500 nM	< 5 nM
CCN1C(=O)CN(C(=O)c2cc(Cc3n[nH]c(=O)c(C(F)(F)F)c3C)ccc2F)CC1C (stereo not drawn) [Example 147, 3-{3-[(4-Ethyl-3-methyl-5-oxopiperazin-1-yl)carbonyl]-4-fluorobenzyl}-4-methyl-6-oxo-5-(trifluoromethyl)-1,6-dihydropyridazin-1-ium trifluoroacetate]	< 50 nM	5 to 25 nM
Cc1c(Cc2ccc(F)c(C(=O)N3CCN(C4CCOC(C)(C)C4)C(=O)C3)c2)n[nH]c(=O)c1C (stereo not drawn) [Example 76, 6-(3-{[4-(2,2-Dimethyltetrahydro-2H-pyran-4-yl)-3-oxopiperazin-1-yl]carbonyl}-4-fluorobenzyl)-4,5-dimethylpyridazin-3(2H)-one trifluoroacetate]	< 5000 nM	< 5 nM
O=C(c1cc(Cc2cc(C(F)(F)F)c(=O)[nH]n2)ccc1F)N1CC(=O)N2CCCC[C@@H]2C1 (single isomer, unassigned) [92 (ZZ2)]	50 to 500 nM	5 to 25 nM

Source: patent US8268827B2, “Pyridazinone derivatives as PARP inhibitors” (Istituto di Ricerche di Biologia Molecolare P. Angeletti …, priority 2007, dated 2012)
